Entries after “also recorded” stand apart in the source; their conditions may differ.
Columns and labels:
[1] = C2C12 host cell cytotoxicity (cell ratio) in HCS assay; assay type: cell-based, Mouse; conditions: mouse, cell ratio, 72 h; read-out: C2C12 Cytotoxicity (CC50 ± SD)
Experimental: (§1) For the evaluation of the activity against T. cruzi amastigotes, high-content screening (HCS) was designed. In summary, 100 μL of host C2C12 cells (ATCC) were seeded in clear bottom black 96-well plates at a density of 2.5 x 10^4 cells/mL (2.5 × 10^3 cells/well). […] The parasites were allowed to infect for a 24 hr period, after which compounds were added in a volume of 50 μL. […] After 72 hrs of compound incubation, the wells were fixed with 4% paraformaldehyde for 15 to 30 mins. The plates were then washed once with deionized water and stained with a solution of DAPI (3 μM) for 1 hour. Plates were imaged in an INCell 2000 (GE Healthcare) high-content analyser by taking 16 pictures per well at 20 X objective amplification. Images were analysed with INCell Developer software (GE Healthcare) using the segmentation of host cell nuclei and parasite kinetoplast DNA. The measurement output used was the average number of parasites per cell calculated by the ratio of host cell nuclei/parasite kinetoplast DNA.

[2] = test system: C2C12 cells; test: as above; assay type: cell-based, Mouse; conditions: for Selectivity Index: CC50 cell line (C2C12)/EC50 T. cruzi
Experimental: as §1

[3] = test system: T. cruzi amastigotes; test: High-content screening assay on intracellular T. cruzi amastigotes; assay type: cell-based, Trypanosoma cruzi; conditions: Trypanosoma cruzi, C2C12, 72 h, Y strain in C2C12 host cells, 72 h; read-out: Anti-T. cruzi Activity Amastigotes (EC50 ± SD)
Experimental: For the evaluation of the activity against T. cruzi amastigotes, high-content screening (HCS) was designed. In summary, 100 μL of host C2C12 cells (ATCC) were seeded in clear bottom black 96-well plates at a density of 2.5 x 10^4 cells/mL (2.5 × 10^3 cells/well). After 24 hrs, 50 μL of Y strain tissue culture-derived trypomastigotes were used to infect the host cells at a density of 7.5 x 10^5/mL (3.75 x 10^4 parasites/well). The parasites were allowed to infect for a 24 hr period, after which compounds were added in a volume of 50 μL. […] After 72 hrs of compound incubation, the wells were fixed with 4% paraformaldehyde for 15 to 30 mins. The plates were then washed once with deionized water and stained with a solution of DAPI (3 μM) for 1 hour. Plates were imaged in an INCell 2000 (GE Healthcare) high-content analyser by taking 16 pictures per well at 20 X objective amplification. Images were analysed with INCell Developer software (GE Healthcare) using the segmentation of host cell nuclei and parasite kinetoplast DNA. The measurement output used was the average number of parasites per cell calculated by the ratio of host cell nuclei/parasite kinetoplast DNA.
In this assay, the compounds are incubated for 72 hours with cells previously infected with wild-type trypomastigotes for 24 hours. The readout was done by comparing the average number of amastigotes per cell that developed by the end of the incubation period. The quality of the assay was statistically evaluated by the calculation of the z-factor [75], that represents the reliability of the assay in distinguishing positive controls confidently from negative controls. Varying from 0 to 1, z-factor values higher than 0.5 are considered acceptable for drug screening. The z-factor obtained was 0.68, validating the use of the assay (S3B Fig).

[4] = test system: T. cruzi Y strain (Luc+); test: Mouse model of T. cruzi infection, bioluminescence imaging; assay type: in vivo, BALB/c mice; conditions: 100 mg/kg/day per os, 4 days
Experimental: To evaluate BNIPSpd (9) efficacy in vivo, five- to six-week-old female BALB/c mice (Charles River) and infected with T. cruzi trypomastigotes expressing luciferase. Parasites were collected from the supernatants of a monolayer of Vero infected cells, washed and suspended in PBS-glucose 0.2%, and injected intraperitoneally (1 x 10^4 per mouse). After 7 days of infection, mice were treated with drugs for 4 consecutive days orally with (benznidazole in 20% Kolliphor HS 15) or intravenously with (BNIPSpd (9) in 10% DMSO) at a dose of 100 or 5 mg/kg/day, respectively. Infection and treatment efficiency were evaluated following subcutaneous injection of 2.1 mg of luciferin and through live imaging using an IVIS Lumina LT (Perkin Elmer). Images of the animals were analysed using the Living Image software (Perkin Elmer).
Supplementary file pntd.0006180.s006.tif: S5 Fig In vivo efficacy testing of BNIPSpd (9). A) Mice were infected with 10^4 Luc^+ trypomastigotes by intraperitoneal injection. […] In the lower panel, bioluminescence signal of whole mice represented in average radiance (photons/sec/cm^2/sr) quantified before and after treatment. […] B) Snapshot Pharmacokinetics of BNIPSpd (9) in BALB/c mice by quantification of BNIPSpd (9) in the blood of mice by UHPLC-MS/MS ESI+ at different time-points after administration of a 5 mg/kg dose by intravenous injection. […]

[5] = molecular target: TcSir2rp1 (Trypanosoma cruzi, UniProt Q4DVL9); test: TcSir2rp1 NAD+-dependent deacetylase fluorimetric assay (CycLex kit); assay type: biochemical; conditions: for Inhibition of NAD+-dependent deacetylase activity of TcSir2rp1 / inhibition at 10 µM: single dose 10 μM, 200 μM NAD+, 10 μM peptide
Experimental: The deacetylase activity was measured using the commercial SIRT1/Sir2 Deacetylase Fluorometric Assay Kit (CycLex,Japan) according to the manufacturer’s recommendations. Briefly, fluorescence emission after digestion of deacetylated substrates by a lysine specific endopeptidase was measured in a fluorometric plate reader (Synergy HT, BioTek) with excitation and emission wavelengths set at 340 and 440 nm, respectively, every 30 seconds for 1 hour. The slope of the linear part of the reaction was calculated and used as readout of enzyme activity. […]
(§2) A variety of the bisnaphthalimidopropyl (BNIPs) derivatives, as well as the newly synthetized derivatives were evaluated as potential TcSir2rp1 inhibitors. The enzymatic reactions were performed using a commercially available CycLex SIRT1/Sir2 deacetylase fluorimetric kit (CycLex Co. Ltd., Nagano, Japan) in the absence and presence of the various inhibitors, 200 μM NAD^+ and 10 μM of peptide substrate as previously described.
as §2, with “µM” for “μM”

[6] = test system: T. cruzi epimastigotes, wild-type (WT); test: T. cruzi epimastigote resazurin viability assay, wild-type; assay type: cell-based, Trypanosoma cruzi; conditions: CL-Brener, 64 h + 6 h resazurin; means ± SD (n = 4)
Experimental: T. cruzi epimastigotes were seeded at 1.25 x 10^6 cells/mL in a 96-well plate in the presence of varying concentrations of test compounds. Following a 64-hour incubation, 15 μL of a resazurin solution (Sigma-Aldrich; 1.1 mg/mL in PBS). […] Each assay was performed in at least triplicate in parallel to the known trypanocidal agent nifurtimox.

[7] = test system: T. cruzi epimastigotes overexpressing TcSir2rp1 (OE) with the pTcINDEX; test: microbe, parasite or virus in culture; assay type: cell-based; conditions: Trypanosoma cruzi, read-out: EC50 against T. cruzi epimastigotes OE
Experimental: For the generation of transgenic cell lines, 15 μg of the constructs were digested overnight (SpeI for the pTcINDEX construct; NotI for the knockout constructs), precipitated with sodium acetate / ethanol, and introduced into 1.5 x 10^7 epimastigote cells in the logarithmic phase of growth via transfection using an AMAXA Nucleofector II device (program V-33) with the Human T-cell nucleofector kit (Lonza). Parasites were suspended in fresh growth medium and incubated for 24-hrs to allow for the expression of drug selectable markers, prior to the addition of appropriate antibiotic (Blasticidin S (Thermo Fisher Scientific; 10 μg/mL); Hygromycin B (Formedium; 100 μg/mL); and Puromycin (Calbiochem; 5 μg/mL). Cells were then incubated for a further four- to six-weeks to allow for the selection of transgenic parasites and then genetically verified by PCR using ORF and drug selection primers.
The TcSir2rp1 open reading frame (TriTryp accession number TcCLB.508207.150) was amplified from CL-Brener genomic DNA using KOD polymerase (Novagen). The resulting PCR product encoding the full-length ORF was cloned directly into the T. cruzi expression vector, pTcINDEX [49], using NotI and BamHI restriction sites.
T. cruzi epimastigotes were seeded at 1.25 x 10^6 cells/mL in a 96-well plate in the presence of varying concentrations of test compounds. Following a 64-hour incubation, 15 μL of a resazurin solution (Sigma-Aldrich; 1.1 mg/mL in PBS). Following an additional 6-hr incubation, cell viability was determined by measuring the fluorescence of each culture with a BioTek FLX800 Fluorescence Microplate Reader (excitation and emission wavelengths of 540/535 nm and 590/610 nm, respectively) and associated Gen5 Reader Control 2.0 software. EC50 values were determined by nonlinear regression to a sigmoidal dose-response curve using GraFit software (Version 5.0, Erithacus Software). Each assay was performed in at least triplicate in parallel to the known trypanocidal agent nifurtimox.

[8] = Solubility; assay type: physicochemical; conditions: limits the concentration tested

Sequence of TcSir2rp1 (Q4DVL9 entry or part of it): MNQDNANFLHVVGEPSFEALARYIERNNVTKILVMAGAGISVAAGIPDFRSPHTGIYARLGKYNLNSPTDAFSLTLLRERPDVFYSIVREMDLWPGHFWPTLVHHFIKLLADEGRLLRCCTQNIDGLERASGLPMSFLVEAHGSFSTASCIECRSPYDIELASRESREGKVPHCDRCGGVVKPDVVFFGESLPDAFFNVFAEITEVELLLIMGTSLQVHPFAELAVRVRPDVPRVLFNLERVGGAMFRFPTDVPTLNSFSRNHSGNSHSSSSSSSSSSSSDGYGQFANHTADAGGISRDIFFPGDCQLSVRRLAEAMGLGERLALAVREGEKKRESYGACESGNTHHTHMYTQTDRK

SMILES	CC50 at 72 h [1] [nM]	Selectivity Index [2]	EC50 [3] [nM]	Reduction in the bioluminescence signal compared to vehicle [4] [fold]	inhibition at 50 µM ([5]; 50 μM) [%]	Inhibition of NAD+-dependent deacetylase activity of TcSir2rp1 [5]	inhibition at 10 µM [5] [%]	Host cell toxicity in primary screening ([2]; single dose 2.5 μM)	EC50 against T. cruzi epimastigotes WT [6]	EC50 [7] [nM]	inhibition at 20 µM [5] [%]	Solubility in assay (qualitative) [8]
O=C(Cn1ccnc1[N+](=O)[O-])NCc1ccccc1 [Benznidazole, benznidazole, reference compound]	> 100000	> 81.0	1230 ± 300	700	–	–	–	–	–	–	–	–
O=C1c2cccc3cccc(c23)C(=O)N1CCCNCCCCCNCCCN1C(=O)c2cccc3cccc(c23)C1=O [Compound 2]	–	–	–	–	55 ± 4	statistically significant inhibition	42 ± 13	high cytotoxicity	just as potent as nifurtimox	7940 ± 780	–	–
O=C1c2cccc3cccc(c23)C(=O)N1CCCNCCCCCCNCCCN1C(=O)c2cccc3cccc(c23)C1=O [Compound 3]	–	–	–	–	–	statistically significant inhibition	31 ± 8	–	moderate activity	102000 ± 9900	34 ± 11	low solubility; also recorded: poor solubility
O=C1c2cccc3cccc(c23)C(=O)N1CCCNCCCCCCCCCNCCCN1C(=O)c2cccc3cccc(c23)C1=O [Compound 6]	2350 ± 770	1.7	1450 ± 370	–	–	–	–	–	moderate activity	113000 ± 8200	–	–
O=C1c2cccc3cccc(c23)C(=O)N1CCCNCCCCCCCCCCNCCCN1C(=O)c2cccc3cccc(c23)C1=O [Compound 7]	–	–	–	–	–	–	–	–	just as potent as nifurtimox	2970 ± 600	–	–
